pIC50: −log10 of the molar value.
Tested on: 633275-114-R-J1-PDC complex spheroids, viability
Experiment: Anticancer human tumor 633275-114-R-J1-PDC patient-derived endometrial adenocarcinoma cell line growth inhibition [GQUAD]
Details: for pIC50: curve of first compound; for viability, T/C: stronger effect = lower value
From the text: DNA G-quadruplex Stabilizer Agents in Combinations in Complex Spheroids
A high-throughput screen of multi-cell type tumor spheroids was designed to identify active combinations of DNA G-quadruplex stabilizer agents and targeted small molecules. Complex spheroids include a stromal component modeled by human endothelial cells (HUVEC) and fibroblasts modeled by human mesenchymal stem cells (MSCs). The concentration ranges selected for each drug and investigational agent were based upon clinically achievable concentrations if the clinical Cmax of the agent was known.
Compounds. The drugs and investigational agents: pidnarulex (CX-5461; NSC782164), APTO-253 (NSC789042), BRACO-19 (NSC847499), peposertib (NSC802822), ceralasertib (NSC780249), elimusertib (NSC800525), camonsertib (NSC841442), AZD-1390 (NSC803789), olaparib (NSC753686), talazoparib (NSC767125), ART-558 (NSC835418), sotorasib (NSC818433), MRTX-1133 (NSC836407), SN-38 (NSC673596), topotecan (NSC609699), etoposide (NSC141540), doxorubicin (NSC123127), gemcitabine (NSC613327), 5-fluorouracil (NSC19893), paclitaxel (NSC125973), vemurafenib (NSC761431), panobinostat (NSC761190), R-306465 (JNJ-16241199; NSC773264), adavosertib (NSC754352), TP-3654 (NSC805149), carboplatin (NSC241240), KSQ-4279 (NSC840948), and staurosporine (NSC755774) were obtained from the National Cancer Institute (NCI) Developmental Therapeutics Program Chemical Repository (34). The FDA-approved anticancer drug set is available from the NCI Developmental Therapeutics Program. […] The stock solutions were prepared in dimethyl sulfoxide (DMSO, Sigma-Aldrich, St. Louis, MO, cat. D2650) at 800-fold the tested concentration and stored at -70 degrees C prior to their use. All drugs and investigational agents were tested over a range starting from a high concentration at or near the clinical Cmax and decreasing in half-log increments. If the clinical Cmax for an agent had not been determined, the highest concentration tested was 10 microM.
2.3 Cell Culture. All cells were maintained in an incubator at 37 degrees C and 5% CO2 with 95% humidity. The PDC lines were cultured according to standard operating procedures established by the NCI PDMR. All PDCs were thawed and cultured in Matrigel-coated flasks prepared with a working solution of 1X Ham's F-12 nutrient mix, without supplementation (Invitrogen, cat. 11765054), 100 U/mL penicillin-streptomycin (Invitrogen, cat. 15140122), and 2.5% Matrigel (Corning Inc., cat. 354248) for the first three passages. The 857933-349-R-J2-PDC line was cultured in 6C/Colon 1B media, which includes advanced DMEM/F-12 (Thermo Fisher Scientific, cat. 12634028), 10 mM HEPES (Thermo Fisher Scientific, cat. 15630080), 1X GlutaMAX supplement (Thermo Fisher Scientific, cat. 35050061), 0.1 mg/mL primocin (InvivoGen, cat. ant-pm-2), 10% defined fetal bovine serum, heat inactivated (HyClone Laboratories Inc., cat. SH30070.03HI), 50% L-WRN conditioned media (ATCC, cat. CRL-3276), 1.25 mM N-Acetyl-L-cysteine (Sigma-Aldrich, cat. A9165), 10 mM nicotinamide (Sigma-Aldrich, cat. N0636), 1X B-27 supplement (Thermo Fisher Scientific, cat. 17504044), 1X N-2 supplement (Thermo Fisher Scientific, cat. 17502048), 10 microM Y-27632 dihydrochloride (Tocris Bioscience, cat. 1254), and 50 ng/mL human EGF recombinant protein (Thermo Fisher Scientific, cat. PHG0311). The 485176-168-R4-J1-PDC line was cultured in Panc media, which includes all 6C/Colon 1B media components plus 100 ng/mL human FGF-10 (Thermo Fisher Scientific, cat. 100-26), 500 nM SB-431542 (Selleckchem, cat. S1067), and gastrin (Tocris, cat. 3006).
[…]

[1] = second compound 0.0316 µM, first compound 0.0316 µM
[2] = second compound 0.0316 µM, first compound 0.1 µM
[3] = second compound 0.0316 µM, first compound 0.316 µM
[4] = second compound 0.0316 µM, first compound 1 µM
[5] = second compound 0.0316 µM, first compound 3.16 µM
[6] = second compound 0.0316 µM, first compound 10 µM
[7] = second compound 0.1 µM, first compound 0.0316 µM
[8] = second compound 0.1 µM, first compound 0.1 µM
[9] = second compound 0.1 µM, first compound 0.316 µM
[10] = second compound 0.1 µM, first compound 1 µM
[11] = second compound 0.1 µM, first compound 3.16 µM
[12] = second compound 0.1 µM, first compound 10 µM
[13] = second compound 0.316 µM, first compound 0.0316 µM
[14] = second compound 0.316 µM, first compound 0.1 µM
[15] = second compound 0.316 µM, first compound 0.316 µM
[16] = second compound 0.316 µM, first compound 1 µM
[17] = second compound 0.316 µM, first compound 3.16 µM
[18] = second compound 0.316 µM, first compound 10 µM
[19] = second compound 1 µM, first compound 0.0316 µM
[20] = second compound 1 µM, first compound 0.1 µM
[21] = second compound 1 µM, first compound 0.316 µM
[22] = second compound 1 µM, first compound 1 µM
[23] = second compound 1 µM, first compound 3.16 µM
[24] = second compound 1 µM, first compound 10 µM
[25] = second compound 3.16 µM, first compound 0.0316 µM
[26] = second compound 3.16 µM, first compound 0.1 µM
[27] = second compound 3.16 µM, first compound 0.316 µM
[28] = second compound 3.16 µM, first compound 1 µM
[29] = second compound 3.16 µM, first compound 3.16 µM
[30] = second compound 3.16 µM, first compound 10 µM
[31] = second compound 10 µM, first compound 0.0316 µM
[32] = second compound 10 µM, first compound 0.1 µM
[33] = second compound 10 µM, first compound 0.316 µM
[34] = second compound 10 µM, first compound 1 µM
[35] = second compound 10 µM, first compound 3.16 µM
[36] = second compound 10 µM, first compound 10 µM
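Note: spheroids exposed to the agents for seven days.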
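Throughout, for viability, T/C: percent of DMSO vehicle control viability which is 100%.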

SMILES: Cc1cccc(N(C)C(=O)C2C(O)CCN2c2nc(C)cc(C(F)(F)F)c2C#N)c1 (centres undefined) + Cc1cnc(CNC(=O)c2c(=O)c3ccc(N4CCCN(C)CC4)nc3n3c2sc2ccccc23)cn1
- pIC50 (second compound 0.0316 µM): < 5.00
- pIC50 (second compound 0.1 µM): 6.09
- pIC50 (second compound 0.316 µM): > 7.50
- pIC50 (second compound 1 µM): > 7.50
- pIC50 (second compound 3.16 µM): > 7.50
- pIC50 (second compound 10 µM): > 7.50
- viability, T/C [1]: 66.2%
- viability, T/C [2]: 64.1%
- viability, T/C [3]: 59.2%
- viability, T/C [4]: 65%
- viability, T/C [5]: 60.5%
- viability, T/C [6]: 67.8%
- viability, T/C [7]: 55.1%
- viability, T/C [8]: 52%
- viability, T/C [9]: 53.7%
- viability, T/C [10]: 48.3%
- viability, T/C [11]: 47.5%
- viability, T/C [12]: 46.8%
- viability, T/C [13]: 40%
- viability, T/C [14]: 41.5%
- viability, T/C [15]: 46%
- viability, T/C [16]: 50.9%
- viability, T/C [17]: 43.4%
- viability, T/C [18]: 44.5%
- viability, T/C [19]: 41.2%
- viability, T/C [20]: 42.1%
- viability, T/C [21]: 41.4%
- viability, T/C [22]: 39.9%
- viability, T/C [23]: 37.3%
- viability, T/C [24]: 37.7%
- viability, T/C [25]: 36.3%
- viability, T/C [26]: 35%
- viability, T/C [27]: 32.1%
- viability, T/C [28]: 33.5%
- viability, T/C [29]: 37.2%
- viability, T/C [30]: 35%
- viability, T/C [31]: 27.2%
- viability, T/C [32]: 33.9%
- viability, T/C [33]: 27.9%
- viability, T/C [34]: 31.4%
- viability, T/C [35]: 34.2%
- viability, T/C [36]: 24.2%

SMILES: CC(=O)O[C@H]1C(=O)[C@@]2(C)[C@H]([C@H](OC(=O)c3ccccc3)[C@]3(O)C[C@H](OC(=O)[C@H](O)[C@@H](NC(=O)c4ccccc4)c4ccccc4)C(C)=C1C3(C)C)[C@]1(OC(C)=O)CO[C@@H]1C[C@@H]2O + Cc1[nH]c2ccc(F)cc2c1-c1nc2c3cccnc3c3ncccc3c2[nH]1
- pIC50 (second compound 0.0316 µM): 7.48
- pIC50 (second compound 0.1 µM): > 7.50
- pIC50 (second compound 0.316 µM): > 7.50
- pIC50 (second compound 1 µM): > 7.50
- pIC50 (second compound 3.16 µM): > 7.50
- pIC50 (second compound 10 µM): > 7.50
- viability, T/C [1]: 50.9%
- viability, T/C [2]: 25.6%
- viability, T/C [3]: 20.8%
- viability, T/C [4]: 19.7%
- viability, T/C [5]: 20.6%
- viability, T/C [6]: 18.9%
- viability, T/C [7]: 45.3%
- viability, T/C [8]: 25.8%
- viability, T/C [9]: 20.2%
- viability, T/C [10]: 18.4%
- viability, T/C [11]: 19.1%
- viability, T/C [12]: 18.9%
- viability, T/C [13]: 47.8%
- viability, T/C [14]: 22.1%
- viability, T/C [15]: 19.9%
- viability, T/C [16]: 19.5%
- viability, T/C [17]: 19.4%
- viability, T/C [18]: 19.1%
- viability, T/C [19]: 41%
- viability, T/C [20]: 21.3%
- viability, T/C [21]: 19.8%
- viability, T/C [22]: 17.7%
- viability, T/C [23]: 18.2%
- viability, T/C [24]: 17.2%
- viability, T/C [25]: 38.2%
- viability, T/C [26]: 17.7%
- viability, T/C [27]: 16.3%
- viability, T/C [28]: 16.5%
- viability, T/C [29]: 19.4%
- viability, T/C [30]: 17.7%
- viability, T/C [31]: 36.8%
- viability, T/C [32]: 18.8%
- viability, T/C [33]: 17.5%
- viability, T/C [34]: 18.8%
- viability, T/C [35]: 18.4%
- viability, T/C [36]: 17.2%

Reference: PubChem BioAssay AID2060505 (Molecular Pharmacology Branch, DTP, NCI, 2025)
